In PubChem BioAssay AID1996:
Converted amounts (≈) assume the structure as drawn.

Conditions: buffer; pH 7.4; 200.0 µM

Compound | solubility kinetic
CC(=O)c1c(C)[nH]c(C(=O)Nc2ccc(Cl)cc2F)c1C | 0.7 µg/mL (≈ 2.27 µM)
Cc1cc(C)nc(NC(=O)c2ccccc2O)n1 | > 36.5 µg/mL
CC1CC(=O)Nc2ccccc2N1C(=O)Nc1ccc(F)cc1 (stereo not given) | > 47 µg/mL
CCOc1ncccc1C(=O)Nc1c(C)n(C)n(-c2ccccc2)c1=O | > 52.9 µg/mL
COc1cc(=O)[nH]c(SC(C)C(=O)Nc2cc(C)on2)n1 (stereo not given) | > 46.5 µg/mL
COc1cc([N+](=O)[O-])ccc1Nc1nc(C)cc(C)n1.Cl | 0.5 µg/mL
O=C(NCc1ccccn1)Nc1ccccc1Cl | > 39.3 µg/mL
O=C(O)CN=CC1=C(O)CC(c2ccccc2)CC1=O (stereo not given) | 39.9 µg/mL (≈ 146 µM)
Cl.O=C(OCCN1CCOCC1)c1ccccc1 | 39.6 µg/mL
COc1ccc(-c2nc3ccccc3c(=O)n2O)cc1 | 37.9 µg/mL (≈ 141 µM)
CCN1CCN(Cc2cccnc2)CC1 | 20.2 µg/mL (≈ 98.4 µM)
Cc1cc(=O)n(Cc2ccc(OC(C)C)cc2)c(=S)[nH]1 | 13.8 µg/mL (≈ 47.5 µM)
CCOC(=O)C(=O)Nc1sc(C(=O)N(CC)CC)c(C)c1C#N | > 50.6 µg/mL
Cc1cc(NC(=O)/C=C\C(=O)O)c([N+](=O)[O-])cc1C | 39.4 µg/mL (≈ 149 µM)
O=c1cc(COc2ccccc2[N+](=O)[O-])nc2sccn12 | 2.7 µg/mL (≈ 8.9 µM)
CC(C)(C)C(=O)/C(C#N)=C/c1cccs1 | 10.9 µg/mL (≈ 49.7 µM)
O=C(COC(=O)c1c[nH]c2ccccc12)Nc1ccccc1 | 1.9 µg/mL (≈ 6.46 µM)
CCOC(=O)c1csc(NC(=O)C2=COCCO2)n1 | > 42.6 µg/mL
[Br-].c1ccc(-c2c[n+]3c(n2-c2ccccc2)SCC3)cc1 | > 53.9 µg/mL
O=c1cc[nH]c2ccc([N+](=O)[O-])cc12 | > 28.5 µg/mL
Cc1ccc(NC(=O)C2Cc3ccccc3O/C2=N\O)cc1C (stereo not given) | 3.8 µg/mL (≈ 12.2 µM)
CC(C)c1onc(C(=O)Nc2ccc3c(c2)OCO3)c1[N+](=O)[O-] | > 47.9 µg/mL
CCCCOC(=O)c1ccc(NC(=O)C(=O)NCc2ccco2)cc1 | < 0.4 µg/mL
O=C(NCCCCNC(=O)c1ccccn1)c1ccccn1 | > 44.8 µg/mL
Nc1cc(C(F)(F)F)ccc1N1CCOCC1 | 36.7 µg/mL (≈ 149 µM)

Compound | solubility kinetic
O=S(=O)(NCc1cn2ccccc2n1)c1cccs1 | > 44 µg/mL
COc1ccc(N2CCc3c(C)nc4c(OC)cc(OC)cc4c32)cc1 | > 52.6 µg/mL
NS(=O)(=O)c1ccc(CNS(=O)(=O)c2cccc3nonc23)cc1 | 54.4 µg/mL (≈ 148 µM)
CC(=O)/C(C#N)=C1\NC(=O)C(Cc2ccccc2C)S1 (stereo not given) | > 43 µg/mL
CN(C)c1ccc(-n2cccc2/C=C/[N+](=O)[O-])cc1 | < 0.2 µg/mL
Cc1cccc(N2CN=c3s/c(=C\c4ccccn4)c(=O)n3C2)c1 | 5.3 µg/mL (≈ 15.8 µM)
O=C(Nc1cccnc1)c1ccc(C(=O)Nc2cccnc2)cc1 | 0.8 µg/mL (≈ 2.51 µM)
O=C(Nc1ccncc1)c1ccc([N+](=O)[O-])cc1Cl | 17.6 µg/mL (≈ 63.4 µM)
Cc1ccc(C(=O)NC2CC(C)(C)NC(C)(C)C2)cc1Cl | 43.6 µg/mL (≈ 141 µM)
CN(c1ccccc1)c1nc(N)c([N+](=O)[O-])c(NCCO)n1 | 42.9 µg/mL (≈ 141 µM)
CC(C)(C)C(=O)O/N=C(\N)c1ccc(Oc2cc(Cl)cc(Cl)c2)c([N+](=O)[O-])c1 | < 0.3 µg/mL
N#CC1=C(N)N2C(=C(C#N)C13CCCC3)Nc1ccccc12 | 36.9 µg/mL (≈ 128 µM)
CC(=O)Nc1cccc(NC=C(C#N)C#N)c1 | 11.7 µg/mL (≈ 51.7 µM)
COC(=O)C1=C(C)N(c2ccccc2)/C(=C/c2ccco2)C1=O | 3.3 µg/mL (≈ 10.7 µM)
OC(CN1CCN(c2cccc(Cl)c2)CC1)c1ccccc1 (stereo not given) | 16.1 µg/mL (≈ 50.8 µM)
COc1cccc(CNC(=O)COC(=O)c2ccc(Cl)s2)c1 | 1.4 µg/mL (≈ 4.12 µM)
COc1ccc(N2CCOCC2)c(NC(=O)c2cccs2)c1 | 47.7 µg/mL (≈ 150 µM)
COc1ccc(C(=O)O/N=C(/c2ccccc2)c2ccncc2)cc1 | 5.6 µg/mL (≈ 16.8 µM)
NC(=O)c1ccc(CN2CCc3ccccc3C2)cc1 | 34.5 µg/mL (≈ 130 µM)
COc1ccc(CN(C)CC(=O)Nc2cccc3ccccc23)cc1F | 15.1 µg/mL (≈ 42.8 µM)
O=C(Nc1ccccc1[N+](=O)[O-])C1COc2ccccc2O1 (stereo not given) | 1 µg/mL (≈ 3.33 µM)
O=C(OCC(=O)c1ccc[nH]1)c1ccccc1 | 32.2 µg/mL (≈ 140 µM)
CC(O)CNCCOc1ccccc1-c1ccccc1.O=C(O)C(=O)O (stereo not given) | > 54.2 µg/mL
O=C(Nc1ccc(O)cc1)c1ccc(NC(=O)C2CCCO2)cc1 (stereo not given) | > 49 µg/mL
Cc1cc(=O)oc2cc(OCC(=O)Nc3cccnc3)ccc12 | 10.5 µg/mL (≈ 33.8 µM)

Now from value to compound:

solubility kinetic | Compound
59.4 µg/mL (≈ 149 µM) | CCC(C)NC(=O)CSc1ccc(S(=O)(=O)N(C)C2CCCCC2)cn1 (stereo not given)
41.5 µg/mL (≈ 143 µM) | CCOc1ccc2oc(=O)cc(CN3CCOCC3)c2c1
5.3 µg/mL (≈ 20.6 µM) | CCc1ccc(NC(=O)CCc2ccc(C)o2)cc1
6.9 µg/mL (≈ 25.4 µM) | COc1ccc(/C=C/C(=O)NC2CC3CCC2C3)cc1 (stereo not given)
> 41.3 µg/mL | N#Cc1ccc(C(=O)NC(=S)N2CCOCC2)cc1
6.9 µg/mL (≈ 15.5 µM) | CC1CCCC(C)N1C(=O)COC(=O)c1ccc(S(=O)(=O)N(C)c2ccccc2)cc1 (stereo not given)
> 73.3 µg/mL | Cc1c(NC(=O)c2cc(S(=O)(=O)N3CCCCC3)ccc2Cl)c(=O)n(-c2ccccc2)n1C
5.2 µg/mL (≈ 15 µM) | CCC(=O)Nc1sc(Cc2ccc3c(c2)OCO3)c(C)c1C(N)=O
10.5 µg/mL (≈ 38.1 µM) | CC(C)(C)c1cc2ncnc(N3CCCCC3)c2s1
> 45.5 µg/mL | Cc1cccc(-c2nnc(SCC(=O)N3CCCC3)o2)c1
> 52.5 µg/mL | O=[N+]([O-])c1cc(S(=O)(=O)NCCN2CCOCC2)ccc1Cl
7.2 µg/mL (≈ 23.6 µM) | Cc1cc(C)c(S(=O)(=O)c2ccccc2C(C)C)c(=O)[nH]1
42.9 µg/mL (≈ 118 µM) | O=C1Cc2cc(NS(=O)(=O)c3ccc(Cl)cc3)cc3c2N1CCC3
2.2 µg/mL (≈ 7.57 µM) | O=C(NC1CCCC1)c1cc(-c2ccccc2Cl)on1
> 41.5 µg/mL | Cc1ccc(S(=O)(=O)NCc2ccncc2)cc1C
70.9 µg/mL (≈ 143 µM) | CC(=O)Nc1ccc(NC(=O)CSc2nc3ccccc3c(=O)n2CCCN2CCOCC2)cc1
> 50.2 µg/mL | O=C(NCC(c1ccco1)N1CCOCC1)c1ccc(Cl)cc1 (stereo not given)
> 52.7 µg/mL | O=C(CSc1nc2ccccc2c(=O)n1-c1ccccc1)N1CCC1

solubility kinetic | Compound
> 45.8 µg/mL | Cc1ncc([N+](=O)[O-])n1CC(=O)N/N=C/c1ccccc1F
18.1 µg/mL (≈ 52.4 µM) | Cc1ccc(NC(=O)CCS(=O)(=O)c2cccc3nonc23)cc1
> 38.7 µg/mL | COC(=O)Cn1cnc2c(oc3ccccc32)c1=O
> 48.4 µg/mL | CC(NC(=O)C(C)N1C(=O)c2ccccc2C1=O)c1ccccc1 (stereo not given)
1.2 µg/mL (≈ 3.74 µM) | CCc1ccc(CNC(=O)CCc2cn(C)c3ccccc23)cc1
> 35.4 µg/mL | Cc1ccc(S(=O)(=O)n2cnc(C)c2)cc1
> 51.1 µg/mL | O=C(CSC1=Nc2ccccc2C2CC=NN12)NCc1ccco1 (stereo not given)
> 44.4 µg/mL | CC(=O)c1cc(Cl)ccc1OCC(=O)NC1CCCC1
1.2 µg/mL (≈ 4.06 µM) | CCCC(C)NC(=O)C1c2ccccc2Oc2ccccc21 (stereo not given)
35.9 µg/mL (≈ 149 µM) | CCN(Cc1ccccc1)C(=O)c1cccnc1
2.2 µg/mL (≈ 6.08 µM) | O=C(CSc1nccc(-c2cccs2)n1)Nc1cccc(Cl)c1
> 47.2 µg/mL | Cc1nn(CC(=O)N2CCc3ccccc3C2)c(C)c1[N+](=O)[O-]
> 35.4 µg/mL | C[C@H](NC(=O)c1ccco1)C(=O)N1CCCC1
> 39.6 µg/mL | CC(=O)Nc1c(Cl)cnn(-c2ccccc2)c1=O
> 27.8 µg/mL | COCC(=O)NC1CCCCCC1
16.7 µg/mL (≈ 41.7 µM) | CC1CCCCC1NC(=O)c1cc(S(=O)(=O)N2CCOCC2)ccc1Cl (stereo not given)
> 49.3 µg/mL | COCC(=O)Nc1ccc(S(=O)(=O)NCC2CCCO2)cc1 (stereo not given)
